Experimental data reported in patent US20100298141A1, “SUBSTITUTED PYRIDINE N-OXIDE HERBICIDES” (E. I. DU PONT DE NEMOURS AND COMPANY, priority 2007, published 2010).

Key:
[1] = system: common (oilseed) sunflower; experiment: Test C pre-/postemergence test; format: in vivo, Helianthus annuus
Outline: (§1)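 Seeds were planted and treated preemergence with test chemical in a non-phytotoxic solvent mixture containing surfactant. Postemergence applications of the same formulation went onto plants 2 to 18 cm tall (1- to 4-leaf stage). A dash marks no test result.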

[2] = system: corn; experiment: Test A pre-/postemergence greenhouse test; format: in vivo, Zea mays; conditions: for Plant response rating, Corn: 0 to 100 scale where 0 is no effect and 100 is complete control; for Corn plant response rating: 0 to 100 scale
Outline: (§2)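 Two application timings were run side by side in the greenhouse. Before emergence, compound went onto the soil surface of loam–sand pots as a directed spray; after emergence, plants at 2–10 cm and the one- to two-leaf stage were treated. Visual injury versus controls was rated at approximately day ten.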

[3] = system: bermudagrass; experiment: Test C pre-/postemergence test; format: in vivo, Cynodon dactylon
Outline: as §1

[4] = system: crabgrass; experiment: Test C pre-/postemergence test; format: in vivo, Digitaria sanguinalis
Outline: as §1

[5] = system: blackgrass; experiment: Test C pre-/postemergence test; format: in vivo, Alopecurus myosuroides
Outline: as §1

[6] = system: velvetleaf; experiment: Test C pre-/postemergence test; format: in vivo, Abutilon theophrasti
Outline: as §1

[7] = system: Surinam grass; experiment: Test C pre-/postemergence test; format: in vivo, Brachiaria decumbens
Outline: as §1

[8] = system: barnyardgrass; experiment: Test C flooded paddy test; format: in vivo, Echinochloa crus-galli; conditions: Flood
Outline: (§3)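 Under a constant 3 cm flood, test compounds went directly into the paddy water. Following 13 to 15 days of greenhouse growth, treated species and controls were compared by eye.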

[9] = system: catchweed bedstraw; experiment: Test C pre-/postemergence test; format: in vivo, Galium aparine
Outline: as §1

[10] = system: kochia; experiment: Test C pre-/postemergence test; format: in vivo, Kochia scoparia
Outline: as §1

[11] = system: wild oat; experiment: Test C pre-/postemergence test; format: in vivo, Avena fatua
Outline: as §1

[12] = system: redroot pigweed; experiment: Test A pre-/postemergence greenhouse test; format: in vivo, Amaranthus retroflexus; conditions: for Plant response rating, Pigweed: 0 to 100 scale where 0 is no effect and 100 is complete control; for Pigweed plant response rating: 0 to 100 scale
Outline: as §2

[13] = system: wheat; experiment: Test C pre-/postemergence test; format: in vivo, Triticum aestivum
Outline: as §1

[14] = system: rice; experiment: Test C flooded paddy test; format: in vivo, Oryza sativa; conditions: Flood
Outline: as §3

[15] = system: pigweed; experiment: Test C pre-/postemergence test; format: in vivo, Amaranthus retroflexus
Outline: as §1

[16] = system: eastern black nightshade; experiment: Test C pre-/postemergence test; format: in vivo, Solanum ptycanthum
Outline: as §1

[17] = system: duck salad; experiment: Test C flooded paddy test; format: in vivo, Heteranthera limosa; conditions: Flood
Outline: as §3

[18] = 62 g ai/ha, Preemergence, scale 0 to 100
[19] = 125 g ai/ha, preemergence, scale 0 (no effect) to 100 (complete control)
[20] = Preemergence, 31 g ai/ha, scale 0 to 100 (0 no effect, 100 complete control)
[21] = preemergence, 250 g ai/ha, scale 0 (no effect) to 100 (complete control)
[22] = Postemergence, 500 g ai/ha, 0 is no effect, 100 is complete control
[23] = Preemergence, 125 g ai/ha, 0 no effect, 100 complete control
[24] = 62 g ai/ha, scale 0 to 100 (0 no effect, 100 complete control)
[25] = 250 g ai/ha, scale 0 to 100, 0 no effect, 100 complete control, 13 to 15 days

## CC(Oc1c(C[S+]([O-])c2ccc(Cl)c[n+]2[O-])c(C(F)(F)F)nn1C)C(F)(F)F (centres unmarked) [Compound 87]
[1]; [18]
  Sunflower plant response rating: 50
[1]; [19]
  Sunflower plant response rating: 55
[1]; [20]
  Plant response rating, Sunflower: 40
[1]; [21]
  Sunflower plant response rating: 70
[2]; Postemergence, 125 g ai/ha
  Plant response rating, Corn: 60
[2]; [22]
  Corn plant response rating: 70
[2]; [23]
  Corn plant response rating: 40
[2]; Preemergence, 500 g ai/ha
  Plant response rating, Corn: 90
[3]; 62 g ai/ha, Preemergence, scale 0 to 100 (0 no effect, 100 complete control)
  Bermudagrass plant response rating: 100
[3]; [19]
  Bermudagrass plant response rating: 100
[3]; [20]
  Plant response rating, Bermudagrass: 100
[3]; [21]
  Bermudagrass plant response rating: 100
[4]; [18]
  Crabgrass, Large plant response rating: 95
[4]; [19]
  Crabgrass, Large plant response rating: 100
[4]; [20]
  Plant response rating, Crabgrass, Large: 80
[4]; [21]
  Crabgrass, Large plant response rating: 100
[5]; [18]
  Blackgrass plant response rating: 100
[5]; [19]
  Blackgrass plant response rating: 100
[5]; [20]
  Plant response rating, Blackgrass: 100
[5]; [21]
  Blackgrass plant response rating: 100
[6]; [18]
  Velvetleaf plant response rating: 5
[6]; [19]
  Velvetleaf plant response rating: 70
[6]; [20]
  Plant response rating, Velvetleaf: 0
[6]; [21]
  Velvetleaf plant response rating: 95
[7]; [18]
  Surinam Grass plant response rating: 95
[7]; [19]
  Surinam Grass plant response rating: 95
[7]; [20]
  Plant response rating, Surinam Grass: 80
[7]; [21]
  Surinam Grass plant response rating: 98
[8]; [24]
  Plant response rating, Barnyardgrass: 30
[8]; [25]
  Plant response rating, Barnyardgrass: 90
[9]; [18]
  Galium plant response rating: 80
[9]; [19]
  Galium plant response rating: 100
[9]; [20]
  Plant response rating, Galium: 70
[9]; [21]
  Galium plant response rating: 100
[10]; [18]
  Kochia plant response rating: 75
[10]; [19]
  Kochia plant response rating: 80
[10]; [20]
  Plant response rating, Kochia: 50
[10]; [21]
  Kochia plant response rating: 95
[11]; [18]
  Oat, Wild plant response rating: 90
[11]; [19]
  Oat, Wild plant response rating: 90
[11]; [20]
  Plant response rating, Oat, Wild: 80
[11]; [21]
  Oat, Wild plant response rating: 100
[12]; Postemergence, 125 g ai/ha
  Plant response rating, Pigweed: 50
[12]; [22]
  Pigweed plant response rating: 100
[12]; [23]
  Pigweed plant response rating: 90
[12]; Preemergence, 500 g ai/ha
  Plant response rating, Pigweed: 100
[13]; [18]
  Wheat plant response rating: 60
[13]; [19]
  Wheat plant response rating: 85
[13]; [20]
  Plant response rating, Wheat: 30
[13]; [21]
  Wheat plant response rating: 85
[14]; [24]
  Plant response rating, Rice: 30
[14]; [25]
  Plant response rating, Rice: 90
[15]; [18]
  Pigweed plant response rating: 75
[15]; [19]
  Pigweed plant response rating: 95
[15]; [20]
  Plant response rating, Pigweed: 10
[15]; [21]
  Pigweed plant response rating: 100
[16]; [18]
  Nightshade plant response rating: 80
[16]; [19]
  Nightshade plant response rating: 95
[16]; [20]
  Plant response rating, Nightshade: 80
[16]; [21]
  Nightshade plant response rating: 100
[17]; [24]
  Plant response rating, Ducksalad: 50
[17]; [25]
  Plant response rating, Ducksalad: 100
